pIC50: −log10 of the molar value.
Each molecule was assayed against ROCK2 (Homo sapiens (Human), UniProt O75116) (assay: ROCK2 kinase inhibition assay (FITC peptide substrate, LABCHIP 3000 Reader)). Details: 5 μM ATP, 1.5 μM peptide substrate.
Chain of ROCK2 (O75116 whole entry, species assumed): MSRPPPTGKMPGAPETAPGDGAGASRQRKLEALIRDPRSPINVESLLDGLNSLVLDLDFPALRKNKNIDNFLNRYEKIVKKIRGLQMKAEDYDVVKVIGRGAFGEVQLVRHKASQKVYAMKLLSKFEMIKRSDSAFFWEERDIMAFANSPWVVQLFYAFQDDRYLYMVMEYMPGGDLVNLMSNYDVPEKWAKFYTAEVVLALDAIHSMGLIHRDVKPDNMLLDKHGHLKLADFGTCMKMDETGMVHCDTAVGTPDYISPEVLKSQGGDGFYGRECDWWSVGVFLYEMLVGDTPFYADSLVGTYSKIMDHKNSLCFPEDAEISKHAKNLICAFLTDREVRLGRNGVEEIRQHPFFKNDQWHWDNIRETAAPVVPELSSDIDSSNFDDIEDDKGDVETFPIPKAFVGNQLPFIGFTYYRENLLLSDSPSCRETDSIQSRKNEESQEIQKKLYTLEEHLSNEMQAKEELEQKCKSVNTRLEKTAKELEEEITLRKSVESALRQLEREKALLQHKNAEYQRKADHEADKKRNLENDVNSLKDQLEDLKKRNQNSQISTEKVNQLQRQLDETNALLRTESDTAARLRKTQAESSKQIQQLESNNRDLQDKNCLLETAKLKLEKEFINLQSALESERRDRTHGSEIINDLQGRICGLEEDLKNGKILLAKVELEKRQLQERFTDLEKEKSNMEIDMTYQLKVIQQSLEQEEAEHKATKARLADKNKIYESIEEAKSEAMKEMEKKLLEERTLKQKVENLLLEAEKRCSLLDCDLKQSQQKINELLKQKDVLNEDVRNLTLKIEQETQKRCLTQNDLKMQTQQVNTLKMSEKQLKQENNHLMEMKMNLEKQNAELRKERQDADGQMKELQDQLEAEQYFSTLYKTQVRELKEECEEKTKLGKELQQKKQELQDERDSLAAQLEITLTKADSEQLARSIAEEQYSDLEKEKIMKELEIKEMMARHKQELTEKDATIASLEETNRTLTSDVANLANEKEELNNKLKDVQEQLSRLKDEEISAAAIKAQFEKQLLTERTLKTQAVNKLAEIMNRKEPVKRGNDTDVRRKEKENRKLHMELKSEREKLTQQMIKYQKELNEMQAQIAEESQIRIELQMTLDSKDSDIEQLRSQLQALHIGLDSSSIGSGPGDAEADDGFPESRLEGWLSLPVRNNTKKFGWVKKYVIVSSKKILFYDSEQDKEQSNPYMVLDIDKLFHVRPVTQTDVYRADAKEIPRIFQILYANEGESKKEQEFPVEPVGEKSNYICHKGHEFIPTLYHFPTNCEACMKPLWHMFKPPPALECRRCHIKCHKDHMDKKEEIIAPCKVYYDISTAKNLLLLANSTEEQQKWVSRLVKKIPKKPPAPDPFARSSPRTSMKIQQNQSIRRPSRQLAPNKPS
Format: biochemical
Summary of the method: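 Reaction in 20 mM HEPES pH 7.5, 20 mM MgCl2, 0.015% Brij-35, 4 mM DTT with 5 μM ATP and 1.5 μM FITC-AHA-AKRRRLSSLRA-OH peptide, started with Rho kinase, DMSO <2%. EDTA-stopped; phospho and non-phospho peptide separated by mobility shift. IC50 from dose-response curve fit.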
With `CCc1nc(N2CC3(CCN(C(=O)C4CC(F)(F)C4)CC3)N(Cc3cccc(OC)c3)C2=O)ccc1-c1cn[nH]c1` [Example 202, 8-(3,3-difluorocyclobutane-carbonyl)-3-(6-ethyl-5-(1H-pyrazol-4-yl)pyridin-2-yl)-1-(3-methoxybenzyl)-1,3,8-triazaspiro[4.5]decan-2-one] the pIC50 was > 8.52. With `CCC(CC)CN1CCC2(CC1)CN(c1ccc(-c3cn[nH]c3)cc1)C(=O)N2Cc1cccc(OC)c1` [Example 123, 3-(4-(1H-pyrazol-4-yl)phenyl)-8-(2-ethylbutyl)-1-(3-methoxybenzyl)-1,3,8-triazaspiro[4.5]decan-2-one] the pIC50 was > 8.52. `COc1cccc(CN2C(=O)N(c3ccc(-c4cn[nH]c4)cn3)CC23CCN(C(C)=O)CC3)c1` [Example 84, 3-(5-(1H-pyrazol-4-yl)pyridin-2-yl)-8-acetyl-1-(3-methoxybenzyl)-1,3,8-triazaspiro[4.5]decan-2-one] was tested, and the pIC50 was > 8.52. For `COc1cccc(CN2C(=O)N(c3ccc(-c4cn[nH]c4)c(C)n3)CC23CCN(C(=O)OC(C)(C)C)CC3)c1` [Example 52, tert-butyl 1-(3-methoxybenzyl)-3-(6-methyl-5-(1H-pyrazol-4-yl)pyridin-2-yl)-2-oxo-1,3,8-triazaspiro[4.5]decane-8-carboxylate], the pIC50 was 6.60 to 7.52. `COc1cccc(CN2C(=O)N(c3ccc(-c4cn[nH]c4)c(OC)n3)CC23CCN(CCC(F)(F)F)CC3)c1` [Example 136, 3-(6-methoxy-5-(1H-pyrazol-4-yl)pyridin-2-yl)-1-(3-methoxybenzyl)-8-(3,3,3-trifluoropropyl)-1,3,8-triazaspiro[4.5]decan-2-one] was tested, and the pIC50 was > 8.52. In the case of `COc1cccc(CN2C(=O)N(c3ccc(-c4cn[nH]c4)c(OC)n3)CC23CCN(C(=O)C(C)(C)O)CC3)c1` [Example 222, 8-(2-hydroxy-2-methylpropanoyl)-3-(6-methoxy-5-(1H-pyrazol-4-yl)pyridin-2-yl)-1-(3-methoxybenzyl)-1,3,8-triazaspiro[4.5]decan-2-one], the pIC50 was > 8.52. `CN(C)C(=O)c1cccc(CN2C(=O)N(c3ccc(-c4cn[nH]c4)cc3)CC23CCOCC3)c1` [Example 42, 3-((3-(4-(1H-pyrazol-4-yl)phenyl)-2-oxo-8-oxa-1,3-diazaspiro[4.5]decan-1-yl)methyl)-N,N-dimethylbenzamide] was tested, and the pIC50 was 6.60 to 7.52. In the case of `COCCN1CCC2(CC1)CN(c1ccc(-c3cn[nH]c3)cn1)C(=O)N2Cc1cccc(OC)c1` [Example 162, 3-(5-(1H-pyrazol-4-yl)pyridin-2-yl)-1-(3-methoxybenzyl)-8-(2-methoxyethyl)-1,3,8-triazaspiro[4.5]decan-2-one], the pIC50 was > 8.52. In the case of `CCc1nc(N2CC3(CCN(C(=O)C(C)C)CC3)N(Cc3cccc(OC)c3)C2=O)ccc1-c1cn[nH]c1` [Example 201, 3-(6-ethyl-5-(1H-pyrazol-4-yl)pyridin-2-yl)-8-isobutyryl-1-(3-methoxybenzyl)-1,3,8-triazaspiro[4.5]decan-2-one], the pIC50 was > 8.52. For `COc1cccc(CN2C(=O)N(c3ccc(-c4cn[nH]c4)cc3)CC23CCN(CC(N)=O)CC3)c1` [Example 169, 2-(3-(4-(1H-pyrazol-4-yl)phenyl)-1-(3-methoxybenzyl)-2-oxo-1,3,8-triazaspiro[4.5]decan-8-yl)acetamide], the pIC50 was > 8.52. `COc1cccc(NC2C(=O)N(c3ccc(-c4cn[nH]c4)cn3)CC23CCN(C(=O)CCc2nnc(-c4ccccc4)o2)CC3)c1` (stereo not drawn) [Example 258, 2-(5-(1H-pyrazol-4-yl)pyridin-2-yl)-4-((3-methoxy-phenyl)amino)-8-(3-(5-phenyl-1,3,4-oxadiazol-2-yl)pro-panoyl)-2,8-diazaspiro [4.5]decan-3-one] showed a pIC50 of 6.60 to 7.52. For `COc1cccc(CN2C(=O)N(c3ccc(-c4cn[nH]c4)cc3)CC23CCOCC3)c1F` [Example 29, 3-(4-(1H-pyrazol-4-yl)phenyl)-1-(2-fluoro-3-methoxybenzyl)-8-oxa-1,3-diazaspiro[4.5]decan-2-one], the pIC50 was 6.60 to 7.52.

From patent publication US10787450B2 (BRISTOL-MYERS SQUIBB COMPANY, priority 2016, dated 2020)
